In patent US11247970B2, “Selective inhibition of gluconeogenic activity” (Dana-Farber Cancer Institute, Inc., priority 2017, dated 2022):

Tests used:
[1] = system: Pck1 gene expression in liver; assay: qPCR of gluconeogenic genes in liver of treated mice; assay type: in vivo; conditions: livers from fasted treated mice
Protocol: All mice were purchased from Jackson laboratories and housed under a 12 h light/12 h dark cycle at 22° C. Before handling, mice were allowed to acclimate for at least 1 week in our animal facility. For in vivo studies with DIO mice, males 6-8 weeks old were fed HFD for the indicated time. For drug administration, SR-18292 was re-suspended in a 10% DMSO/10% Tween80/80% PBS solution at a final concentration of 6-12 mg/ml. Metformin was re-suspended in the same solution at a 20 mg/ml concentration. SR-18292 was injected via I.P. for 3 days between 4-5 pm and food was removed on day 3 at 5 pm. […] Metformin was administered via oral gavage. […] Insulin tolerance test was performed following the same dosing protocol, but mice were fasted for 4 hours after the forth injection before performing the test. Insulin was injected via I.P. (0.5 U/Kg) and blood glucose was measured every 20 minutes. Glycemia was measured by tail bleed using a glucometer (OneTouch). […] Total RNA was extracted from cells or pulverized liver using TRIzol reagent (Ambion, Life Technologies), followed by cDNA preparation from 2 μg of total RNA with a High-Capacity cDNA Reverse Transcription Kit (Applied Biosystems). cDNA products were quantified by real-time PCR using Power SYBR Green PCR Master Mix (Applied Biosystems) on a CFX384 Real-Time PCR System (Bio-Rad). […]

[2] = system: HFD fed mice; assay: Pyruvate tolerance test (PTT); assay type: in vivo; conditions: HFD 17 weeks
Protocol: All mice were purchased from Jackson laboratories and housed under a 12 h light/12 h dark cycle at 22° C. Before handling, mice were allowed to acclimate for at least 1 week in our animal facility. For in vivo studies with DIO mice, males 6-8 weeks old were fed HFD for the indicated time. For drug administration, SR-18292 was re-suspended in a 10% DMSO/10% Tween80/80% PBS solution at a final concentration of 6-12 mg/ml. Metformin was re-suspended in the same solution at a 20 mg/ml concentration. SR-18292 was injected via I.P. for 3 days between 4-5 pm and food was removed on day 3 at 5 pm. […] Metformin was administered via oral gavage. […] Insulin tolerance test was performed following the same dosing protocol, but mice were fasted for 4 hours after the forth injection before performing the test. Insulin was injected via I.P. (0.5 U/Kg) and blood glucose was measured every 20 minutes. Glycemia was measured by tail bleed using a glucometer (OneTouch). For all experiments, age- and body weight-matched animals were used. For protein, RNA extracts and biochemistry studies, livers were removed following each experiment and snap frozen in liquid nitrogen. For information on number of animals in each experiment please refer to FIGS. 4, 5 and S5 legends. All studies were performed according to protocols approved by Beth Israel Deaconess Medical Center's Animal Care and Use Committee.

[3] = system: HNF4α; assay: Transcriptional luciferase reporter assay (Pck1 promoter fragment with HNF4α site) in U-2 OS cells; assay type: cell-based; conditions: 24 h
Protocol: U-2 OS cells were transfected with a fixed amount of DNA. After 6 h medium was changed and compound treatment started. The following morning medium was changed again and fresh compound was added for additional 3 h after which cells were collected (24 h post transfection) with 1× Passive Lysis Buffer (Promega). Firefly luciferase reporter was determined by addition of Luciferase Assay Substrate (Dual-Luciferase Reporter Assay System, Promega) and quantification of luminescence on a FLUOstar Omega plate reader (BMG Labtech). CMV-driven Renilla luciferase vector was cotransfected as an internal control. Data are presented as firefly luciferase reporter values normalized to Renilla values and are representative of at least two independent experiments.
The GCN5 acetyl transferase complex decreases PGC-1α gluconeogenic transcriptional activation by interacting with PGC-1α. This is achieved at least in part by reducing the ability of PGC-1α to co-activate the nuclear hormone receptor HNF4α. Co-activation of HNF4α by PGC-1α is required to promote transcription of the gluconeogenic genes Pck1 and G6pc. To test whether SR-18292 reduces the transcriptional activity of HNF4α that is induced by PGC-1α, a luciferase reporter construct driven by a fragment of the Pck1 promoter containing an HNF4α binding site was used. […]

Cc1ccc(CN(CC(O)COc2cccc3[nH]ccc23)C(C)(C)C)cc1 (stereo not shown) [SR-18292, 1-((1H-indol-4-yl)oxy)-3-(tert-butyl(4-methylbenzyl)amino)propan-2-ol] was tested, and the “gluconeogenic gene expression (Pck1) in liver” value [1] was “inhibited”, the “defects in glucose production relative to metformin” value [2] was “comparable to that mediated by metformin treatment” and the “glucose levels after pyruvate injection” value [2] was “significantly reduced”. The “transcriptional activity of HNF4α induced by PGC-1α” value [3] was “significantly reduced”.
